The nature of this data set: Pharmacokinetic analysis of brain and serum by mass spectrometry. It counts as in vivo, C57BL/6 mice. On the procedure: C57BL/6 mice received a single IP dose of 1.25, 2.5, 5, or 10 mg/kg LCB, and brain and serum were collected at 2, 4, 6, or 8 hours (n=3 per dose and time point). Animals injected with vehicle (DMSO) were used for background subtraction. Drug levels were determined at the Georgetown University Proteomics and Metabolomics Shared Resources (PMSR). Stock solution for LCB-03110 [(approximately 1 mg/mL each) was prepared in methanol/dichloromethane (50:50). The serial dilutions for each of the standards were produced for the study separately in methanol/HPLC grade water (50:50). Preparation of the calibration curve standards and quality samples (QC) was performed by mixing the stock solutions in blank samples. The final calibration concentration for LCB-03110 ranged from 0.1 ng/mL to 100 ng/mL. The QC concentrations were 30 ng/mL, 3 ng/mL and 0.3 ng/mL, respectively. Serum and brain samples were stored at −80° C. and then thawed to room temperature prior to preparation. The thawed serum samples (20 μL) were transfused to a tube containing 100 μL of water. The 500 μL extraction solvent and acetonitrile/methanol (50:50) was added to the sample. The mixture was vortexed and incubated on ice for 20 minutes to accelerate protein precipitation. After incubation, the samples were vortexed again and centrifuged at 13,000 rpm for 20 minutes at 4° C. The supernatant was then collected and transferred to a new tube, was dried using speed vac, and reconstituted in 200 μL of methanol/water (50:50). The mixture was spun again at 13,000 rpm for 20 minutes at 4° C. The supernatant was then collected into a mass spec sample tube cap and run in the mass spectrometer. For brain, a small section of the thawed brain sample from each animal was transferred to a flat bottom tube. 200 μL of methanol/water (90:10) was added, and the tissue was homogenized. Acetonitrile was then added to the mixture facilitating protein precipitation. The mixture was then incubated on ice for 10 minutes. After incubation, the samples were vortexed and centrifuged at 13,000 rpm for 20 minutes at 4° C. The supernatant was then collected and transferred to a new tube, dried using speed vac, and reconstituted in 200 μL of methanol/water (50:50). The mixture was centrifuged at 13,000 rpm for 20 minutes at 4° C. The supernatant was collected into a mass spec sample tube cap and run in the mass spectrometer. The samples were resolved on an Acquity UPLC BEH C18 […], 2.1×50 mm column online with a triple quadrupole mass spectrometer (Xevo-TQ-S, Waters Corporation, USA) operating in the multiple reaction monitoring (MRM) mode. The sample cone voltage and collision energies were optimized for both analytes to obtain maximum ion intensity for parent and daughter ions using “Intelli Start” feature of MassLynx software (Waters Corporation, USA). The instrument parameters were optimized to gain maximum specificity and sensitivity of ionization for the parent [m/z=438.25] and daughter ions [m/z=357.33]. Signal intensities from all MRM Q1/Q3 ion pairs for analytes were ranked to ensure selection of the most intense precursor and fragment ion pair for MRM-based quantitation. […] Analysis was performed with a six to eight-point calibration curve, the sample queue was randomized and solvent blanks were injected to assess sample carryover. MRM data were processed using TargetLynx 4.1. The relative quantification values of analytes were determined by calculating the ratio of peak areas of transitions of samples normalized to the peak area of the internal standard.

Setting [1] is: brain response values (Area/IS Area), single IP dose.

Turning to `Oc1cccc(Nc2ccnc3cc(-c4cccc(CN5CCOCC5)c4)sc23)c1` [LCB 03-0110, 3-(2-(3-(morpholinomethyl)phenyl)thieno[3,2-b]pyridine-7-ylamino)phenol], for the setting “2.5 mg/kg”, the “Tmax of the plasma:brain ratio” value is on record as “about 2 hours”. Further, for the setting “2.5 mg/kg, among 10, 5, 2.5 and 1.25 mg/kg”, the “plasma:brain ratio, comparison of doses” value was “highest plasma:brain ratio”. The “drug concentration in the brain, comparison of doses” value (10 mg/kg, among 10, 5, 2.5 and 1.25 mg/kg) is on record as “highest drug concentration in the brain”. Under setting [1], the “time at which washed out completely from the brain” value is “about 4 hours” and the “time of peak in the brain” value was “about 1 hour”. The “blood brain barrier penetration” value (single IP dose 1.25, 2.5, 5 or 10 mg/kg) was “penetrates the blood brain barrier”.
